Assay results reported in patent US11505574B2, “Modulation of P53 for the treatment of cancer” (THE REGENTS OF THE UNIVERSITY OF CALIFORNIA, priority 2016, dated 2022).

Experiments:
p53 = experiment: Western blot for p53 and downstream targets in MCF7 cells treated with peptides; assay type: cell-based, human; details: MCF7 cells
RKO cells = experiment: RKO cell colony formation assay (peptides); assay type: cell-based, human; details: 5 μM, 3.125 ng/mL doxorubicin 48 hours (FIG. 34D)
Protocol: For the experiments shown in FIG. 34D, RKO cells were seeded on a 6-well plate at a seed density of 2×10^3 cells per well. The following day the cells were treated with 5 μM Pen-Ctrl, 5 μM Pen-Pep23, or 5 μM Pen-Pep8. The following day, 3.125 ng/mL doxorubicin was added to the cells for 48 hours. Subsequently, the cell media was changed every 3 days until colonies were visible. The cells were fixed and stained with crystal violet.

[1] = system: MIA-PaCa-2 pancreatic cancer cells; experiment: MIA-PaCa-2 cell colony formation assay (peptides); assay type: cell-based, human; details: miaPaCa2 cells (mutant p53); 10 μM for 20 minutes then 0.25 ng/mL doxorubicin 18 hours (FIG. 37D)
Source text: […] […] After colonies formed they were fixed (i.e., using 7:1 MeOH:glacial acetic acid) and stained with crystal violet.

HaCaT cells = experiment: HaCaT cell colony formation assay; assay type: cell-based; details: HaCaT cells (mutant p53); 10 μM for 20 minutes then 0.5 ng/mL doxorubicin 18 hours (FIG. 37D)
Protocol: For the experiments shown in FIG. 37D, HaCaT and MiaPaCa2 cells were grown in 6-well plates at 500 cells per well. The following day, 10 μM Pen-Ctrl (SEQ ID NO:10), Pen-Pep23 (SEQ ID NO:9), or Pen-Pep8 (SEQ ID NO:50) were added to the cells for 20 minutes followed by treatment with 0.5 ng/mL doxorubicin (for HaCaT cells) or 0.25 ng/mL doxorubicin (for miaPaCa2 cells) for 18 hours, then the media was changed to fresh DMEM. After colonies formed they were fixed (i.e., using 7:1 MeOH:glacial acetic acid) and stained with crystal violet.

RKO tumor xenograft = RKO tumor xenograft model in nude mice; assay type: in vivo
Protocol: 6-week-old female nude mice were used for the xenograft study (FIG. 35A). 1×10^6 RKO cells in a 1:1 mixture of matrigel:DMEM (serum-free) were injected into the right flank of the nude mice. After tumors had grown to a size of about 100 mm^3, treatment with either Pen-Ctrl or Pen-Pep8 (5 μM in 50 μL sterile PBS) was administered by intratumoral injection every 2 days for 2 weeks. After treatment, the animals were sacrificed and tumors were excised, measured, and weighed followed by being flash frozen (n=6 for each group). Xenograft volume over the course of treatment and final tumor weight after the animals were sacrificed are shown in FIGS. 35B and 35C, respectively. Furthermore, pieces of the frozen xenografts were cut using a sterile scalpel and then the tumor tissue was lysed and lysate was run on a 10% SDS-PAGE gel followed by Western blotting for Puma, p53, and actin.

p53 (mutant) = experiment: Western blot for mutant p53 in miaPaCa2 cells treated with Pen-Pep8; assay type: cell-based; details: 2.5 μM for 30 minutes then 6.25 ng/mL doxorubicin 18 hours (FIG. 37C)
Protocol: For the experiments shown in FIG. 37C, 2×10^5 miaPaCa2 cells per well were plated the day before in a 6-well plate. The following day, the cells were treated with 2.5 μM Pen-Ctrl (SEQ ID NO:10) or Pen-Pep8 (SEP ID NO:50) for 30 minutes then treated with 6.25 ng/mL doxorubicin for 18 hours. The following the day, the cells were harvested with 350 μL 1×SDS-lysis buffer and 20 μL of lysate was loaded per well onto a 10% SDS-PAGE gel followed by Western blot for total eIF4E, p-eIF4E (Ser209), p53 (mutant), and actin.

p-eIF4E (Ser209) = experiment: Western blot for p-eIF4E (Ser209) in RKO, MCF7 and miaPaCa2 cells; assay type: cell-based
Protocol: For the experiments shown in FIG. 37A, RKO cells were plated at a seed density of 1×10^5 cells per well in 12-well plates the night before the addition of peptides. For PEP1 (SEQ ID NO:13) plus Ctrl (SEQ ID NO:11), Pep8 (SEQ ID NO:1), Pep8-SR (SEQ ID NO:53), and Pep8-SK (SEQ ID NO:52), 375 nM of peptide was added to […] PEP1 in 100 μL serum-free DMEM for 20 minutes before being added to the cells for 18 hours. After 18 hours, cells were harvested with 1×SDS-lysis buffer (150 μL) and then lysate was run on a 10% SDS-PAGE gel followed by Western blotting for p53, p-eIF4E (Ser209), and actin.
For the experiments shown in FIG. 37B, MCF7 cells were grown the night before in a 6-well plate seeded with 2×10^5 cells. The next day cells were treated with 2.5 μM Pen-Ctrl (SEQ ID NO:10) or Pen-Pep8 (SEQ ID NO:50) for 18 hours. The following day, the cells were lysed with 1×SDS-lysis buffer (250 μL) and lysate was run on a 10% SDS-PAGE gel. 20 μl was loaded per well followed by Western blot for p-eIF4E (Ser-209), p53, and actin.
For the experiments shown in FIG. 37C, 2×10^5 miaPaCa2 cells per well were plated the day before in a 6-well plate. The following day, the cells were treated with 2.5 μM Pen-Ctrl (SEQ ID NO:10) or Pen-Pep8 (SEP ID NO:50) for 30 minutes then treated with 6.25 ng/mL doxorubicin for 18 hours. […]

Q: What does the source list for “RQIKIWFQNRRMKWKKYPYAASPA [Pen-Pep8, Penetratin fused to Pep8]”?
A: p53 expression with low dose doxorubicin (Western blot) (p53; 2.5 μM for 20 minutes then 6.25 ng/mL doxorubicin 18 hours (FIG. 34B)): robust p53 expression; p53 expression (Western blot) (p53; 2.5 μM, 18 hours (FIG. 32C)): induced p53 expression; p53 protein levels (Western blot) (p53; 2.5 μM, 18 hours (FIG. 37B)): increased p53 protein levels; colony formation, sensitization to low-dose doxorubicin (RKO cells): sensitized MCF7 and RKO cells to low-dose doxorubicin; colony formation, sensitization to low-dose doxorubicin [1]: sensitized to low-dose doxorubicin; colony formation, sensitization to low-dose doxorubicin (HaCaT cells): sensitized to low-dose doxorubicin; RKO tumor cell growth in a xenograft model (tumor volume, tumor weight) (RKO tumor xenograft; female nude mice, 5 μM in 50 μL PBS, intratumoral injection every 2 days for 2 weeks, versus Pen-Ctrl (FIGS. 35A-35C)): inhibited RKO tumor cell growth; p53 and Puma protein expression in xenograft tumors (Western blot) (RKO tumor xenograft; lysate from RKO xenograft tumors after treatment, versus Pen-Ctrl (FIG. 35D)): increased p53 protein expression, as well as its target, Puma; mutant p53 expression (Western blot) (p53 (mutant)): decreased mutant p53 expression; p-eIF4E (Ser-209) level (Western blot) (p-eIF4E (Ser209); MCF7 cells, 2.5 μM, 18 hours (FIG. 37B)): reduced p-eIF4E; p-eIF4E (Ser209) level (Western blot) (p-eIF4E (Ser209); miaPaCa2 cells, 2.5 μM for 30 minutes then 6.25 ng/mL doxorubicin 18 hours (FIG. 37C)): substantial decrease in p-eIF4E
